Counter-ions that a name gives are not always drawn.
Assays:
[1] = target: T1, human α4β2 nicotinic acetylcholine receptor subtype expressed in HEK-293 cells (Homo sapiens, UniProt P17787+P43681); assay: Calcium flux assay (FLIPR) in HEK-293 cells expressing human α4β2; format: cell-based
T1 construct: expressed in transfected cells
Experimental: Calcium Flux Assays Using Cells Expressing nAChR Subtypes
Human embryonic kidney (HEK) 293 cells stably expressing human α4β2 or α3β4 combinations are grown to confluency in 162 cm^2 tissue culture flasks in DMEM media supplemented with 10% FBS and 25 μg/ml zeocin and 200 μg/ml hygromycin B. IMR-32 neuroblastoma cells (ATCC) are grown to confluency in 162 cm^2 tissue culture flasks in minimum essential media supplemented with 10% FBS and 1 mM sodium pyruvate, 1% non-essential amino acids and 1% antibiotic-antimycotic. The cells are then dissociated using cell dissociation buffer and 100-150 μl per well of 3.5×10^5 cells/ml cell suspension (˜50,000-100,000 cells/well) was plated into 96-well black plates (poly-D-lysine precoated) with clear bottom and maintained for 24-48 hours in a tissue culture incubator at 37° C. under an atmosphere of 5% CO2: 95% air. Other clonal cell lines or primary cell cultures that express endogenous α4* nicotinic receptors may also be used in this assay. Calcium flux was measured using calcium-3 assay kit (Molecular Devices, Sunnyvale, Calif.) or fluo-4 (Invitrogen). A stock solution of the dye was prepared by dissolving each vial supplied by the vendor in Hank's balanced salt solution buffer (HBSS) or 150 mM NMDG, 20 mM CaCl2 containing 10 mM HEPES, The stock solution was diluted 1:20 using the same buffer before use. The growth media was removed from the cells. The cells were loaded with 100 μl of the dye per well and incubated at room temperature for up to one hour for HEK 293 clonal stable cell lines or 30 minutes-45 minutes at 37° C. for IMR-32 cells Fluorescence measurements were read simultaneously from all the wells by a Fluorometic Imaging Plate Reader (FLIPR) at an excitation wavelength of 480 nm and an emission wavelength of 520 nm. Baseline fluorescence was measured for the first 6 seconds at which 3× concentrations of modulator/test compounds were added to the cell plate at 50 μl and incubated for five minutes. The fluorescence intensity was captured every second for the first 1 minute followed by every 5 seconds for an additional 4 minutes. This procedure was followed by 50 μl of 4× concentration of agonist and readings were taken for a period of 3-5 minutes as described above. Data was normalized to maximal responses and plotted as a function of concentration. The concentration dependence of changes fluorescence responses was fitted by nonlinear regression analysis (GraphPad Prism, San Diego, Calif.) to obtain EC50 values.
The positive allosteric modulator effects on α4β2nAChRs exemplified by 3-(3-pyridin-3-yl-1,2,4-oxadiazol-5-yl)benzonitrile (Compound 1) and 3,5-di(pyridin-3-yl)-1,2,4-oxadiazole (Compound 2) can be identified by measuring their potentiating effect to fluorescence changes in intracellular calcium using a fluorimetric plate reader. The potentiating effect of an α4β2 modulator on α4β2 receptor can also be illustrated by concentration responses to α4β2 agonists, for example 5-[(2R)-azetidin-2-ylmethoxy]-2-chloropyridine (Compound A) and (3R)-1-pyridin-3-ylpyrrolidin-3-amine (Compound B), in presence of a fixed concentration of PAM. […] In addition to compound A and B, other known nicotinic agonists can be left-shifted in presence of α4β2 PAM such as 3-(3-(pyridin-3-yl)-1,2,4-oxadiazol-5-yl)benzonitrile (Compound 1, FIG. 2C). […]

α4β2nAChR modulator site = target: T2, α4β2nAChR modulator site (Homo sapiens, UniProt P17787+P43681); assay: [^3H]-POB binding, membrane enriched fractions from human cortex; details: saturation binding, human frontal cortex membranes, 4° C.
T2 construct: membrane enriched fractions from human cortex (ABS Inc., Wilmington, Del.); tissue ABS Inc., Wilmington, Del; host or cells: human cortex (frontal cortex) membrane enriched fractions
Experimental: In addition to the assays previously described for assessing nicotinic acetylcholine receptor positive allosteric modulators (fluoroscence-based measurements, electrophysiology measurements using Xenopus oocytes or cell lines), the receptor interactions of positive allosteric modulators at α4β2 nAChRs also can be evaluated according to the [^3H]-POB binding assay, which was performed as described below.
[^3H]-POB ([^3H]-3-(5-(pyridin-3-yl)-1,2,4-oxadiazol-3-yl)benzonitrile) binding to a α4β2nAChR modulator site was determined using membrane enriched fractions from human cortex (ABS Inc., Wilmington, Del.). […] Non-specific binding was determined in the presence of 30 μM unlabeled 3-(5-(pyridin-3-yl)-1,2,4-oxadiazol-3-yl)benzonitrile. Under these conditions, saturable binding of [^3H]-POB binding was measured in membrane enriched fractions from human frontal cortex (FIG. 10). […]
For use in concentration-inhibition assays, seven log-dilution concentrations of test compounds containing […] of protein, and 50 nM [^3H]-POB (16.4 Ci/mmol) were incubated in a final volume of 500 μL for 75 minutes at 4° C. in duplicate. Non-specific binding was determined in the presence of 30 μM 3-(5-(pyridin-3-yl)-1,2,4-oxadiazol-3-yl)benzonitrile. […] IC50 values were determined by nonlinear regression in Microsoft® Excel or Assay Explorer. […]

α4β2 nAChR = α4β2 nAChR (UniProt P09483+P12390); assay: [^3H]-cytisine binding assay
Excerpt: One manner for characterizing α4β2 receptor ligands is by a binding assay. […] The [^3H]-cytisine binding assays have been well reported; however, further details for carrying out the assays can be obtained in International Publication No. WO 99/32480; U.S. Pat. Nos. 5,948,793 and 5,914,328; WO 2004/018607; U.S. Pat. No. 6,809,105; WO 00/71534; and U.S. Pat. No. 6,833,370.

[2] = system: nerve injury induced mechanical allodynia; assay: Chung model of neuropathic pain (L5-L6 spinal nerve ligation, tactile allodynia, von Frey); format: in vivo, rat
Experimental: To assess whether α4β2 PAM can increase antinociceptive responses of agonists in vivo, the following study was conducted. The materials and methods used to accomplish the study follow.
Male Sprague-Dawley rats (Charles River, Wilmington, Mass.) weighing 120-150 grams at time of surgery were utilized. These animals were group housed in AAALAC approved facilities at Abbott Laboratories in a temperature-regulated environment with lights on between 0700 and 2000 hours. Food and water was available ad libitum except during testing. All animal handling and experimental protocols were approved by an institutional animal care and use committee (IACUC). All experiments were performed during the light cycle.
5[(2R)-Azetidin-2-ylmethoxy]-2-chloropyridine (Compound A, 1-100 nmol/kg) and 3-(3-pyridin-3-yl)-1,2,4-oxadiazol-5-yl)benzonitrile (α4β2 PAM Compound 1, 1-35 μmol/kg, i.p.) was used. Compound A and D was prepared in saline and injected in solution in a volume of 2 ml/kg body weight 30 minutes before behavioral evaluation. Compound 1,3-(3-(pyridin-3-yl)-1,2,4-oxadiazol-5-yl)benzonitrile, was prepared in 30% hydroxybetacyclodextrin and injected in solution in a volume of 4 ml/kg body weight immediately before Compound A. For studies with Compound D, the doses tested ranged from 0.3-30 μmol/kg i.p.
To produce neuropathic pain, tight ligation of the L5-L6 spinal nerves was performed. As previously described in detail by Kim and Chung (Kim S H and Chung J M (1992), Pain 50: 355), following sterilization procedures, a 1.5 cm incision was made dorsal to the lumbosacral plexus. The paraspinal muscles (left side) were separated from the spinous processes, the L5 and L6 spinal nerves isolated, and tightly ligated with 3-0 silk thread. Following hemostasis, the wound was sutured and coated with antibiotic ointment. The rats were allowed to recover and then placed in a cage with soft bedding for 7-14 days before behavioral testing for mechanical allodynia.
Tactile allodynia was measured using calibrated (force; g) von Frey filaments (Stoelting, Wood Dale, Ill.). Briefly, rats were placed into individual plexiglass containers and allowed to acclimate for 15-20 minutes before testing. Withdrawal threshold was determined by increasing and decreasing stimulus intensity and estimated using a Dixon non-parametric test (Chaplan et al., 1994; Chaplan S R, Bach F W, Pogrel J W, Chung J M and Yaksh T L (1994) J Neurosci Methods 53:55-63). Only rats with threshold scores<4.5 g were considered allodynic and utilized in further testing. A percent of maximal possible effect (% M.P.E.) of the tested compounds was calculated according to the formula: ([post-drug threshold]-[baseline threshold])/([maximum threshold]-[baseline threshold])×100%, where maximum threshold was equal to 15 g.
Analysis of the in vivo data was carried out using analysis of variance. Where appropriate, Bonferroni's Multiple Comparison Test was used for post-hoc analysis. The level of significance was set at p less than 0.05. Data are presented as mean±S.E.M.

[3] = co-applied with the PAM Compound 1, α4β2 nAChRs

T1 sequence (P43681 29-627 limits assumed): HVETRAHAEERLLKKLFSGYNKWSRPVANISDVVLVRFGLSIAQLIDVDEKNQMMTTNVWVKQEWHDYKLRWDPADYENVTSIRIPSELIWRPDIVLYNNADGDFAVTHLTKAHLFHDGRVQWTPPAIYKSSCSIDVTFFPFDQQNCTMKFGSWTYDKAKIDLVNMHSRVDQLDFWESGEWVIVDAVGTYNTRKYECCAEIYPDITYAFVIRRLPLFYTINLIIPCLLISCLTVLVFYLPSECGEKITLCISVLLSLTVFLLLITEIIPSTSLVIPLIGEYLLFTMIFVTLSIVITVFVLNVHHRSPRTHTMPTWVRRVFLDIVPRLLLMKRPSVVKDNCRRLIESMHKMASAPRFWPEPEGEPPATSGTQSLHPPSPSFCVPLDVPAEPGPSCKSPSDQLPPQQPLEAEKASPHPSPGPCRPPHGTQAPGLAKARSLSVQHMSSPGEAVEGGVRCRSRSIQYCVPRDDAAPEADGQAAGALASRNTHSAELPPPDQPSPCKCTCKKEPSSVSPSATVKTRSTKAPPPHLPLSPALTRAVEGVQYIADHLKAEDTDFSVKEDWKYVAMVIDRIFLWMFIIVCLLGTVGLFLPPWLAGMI
T1 sequence (P17787 26-502): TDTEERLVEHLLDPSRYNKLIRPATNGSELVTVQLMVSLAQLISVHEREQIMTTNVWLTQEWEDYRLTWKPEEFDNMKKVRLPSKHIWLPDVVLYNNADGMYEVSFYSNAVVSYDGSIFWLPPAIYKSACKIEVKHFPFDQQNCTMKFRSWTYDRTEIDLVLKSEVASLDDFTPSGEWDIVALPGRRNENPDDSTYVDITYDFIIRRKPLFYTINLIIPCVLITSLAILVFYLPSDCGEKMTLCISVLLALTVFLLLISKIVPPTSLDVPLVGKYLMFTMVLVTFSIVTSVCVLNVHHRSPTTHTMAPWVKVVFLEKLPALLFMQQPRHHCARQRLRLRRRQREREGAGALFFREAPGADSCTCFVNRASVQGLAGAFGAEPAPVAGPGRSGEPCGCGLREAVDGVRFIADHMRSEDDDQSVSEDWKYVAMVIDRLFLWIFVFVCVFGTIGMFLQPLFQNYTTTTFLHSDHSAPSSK
T2 sequence (P43681 29-627 limits assumed): as the sequence (P43681 29-627 limits assumed) above
T2 sequence (P17787 26-502): as the sequence (P17787 26-502) above

Compound: Cc1ncccc1OC[C@@H]1CCCN1 [Compound C, 2-methyl-3-(2-(S)-pyrrolidinylmethoxy)pyridine]
- calcium response [1, 3]: evoked robust responses
- calcium response ([1]; ligand alone, α4β2 nAChRs): does not evoke a calcium response

Compound: [3H]c1cncc(-c2nc(-c3cccc(C#N)c3)no2)c1 [[^3H]-POB, [^3H]-3-(5-(pyridin-3-yl)-1,2,4-oxadiazol-3-yl)benzonitrile]
- Bmax (α4β2nAChR modulator site): 2900±500 fmol/mg protein

Compound: Fc1ccc(-c2nc(-c3cncnc3)no2)cc1F [Example 101, 5-(3,4-difluorophenyl)-3-(pyrimidin-5-yl)-1,2,4-oxadiazole tosylate]
- Activity (allosteric effects-potentiation of fluorescence responses) [1]: a (“a” denotes as activity range from 200-400%)

Compound: c1ccc2ncc(N3C[C@@H]4CN[C@@H]4C3)cc2c1 [Compound D, (1S,5S)-3-(3,6-diaza-bicyclo[3.2.0]hept-3-yl)-quinoline]
- calcium response [1, 3]: evoked robust responses
- calcium response ([1]; ligand alone, α4β2 nAChRs): does not evoke a response
- Ki (α4β2 nAChR): 6 nM
- efficacy in neuropathic pain ([2]; administered alone): ineffective in reversing neuropathic pain
- efficacy in neuropathic pain ([2]; combined with the PAM (Compound 1)): significant efficacy can be realized

From patent US9040568B2, “Pharmaceutical compositions for the treatment of pain” (AbbVie Inc., priority 2009, dated 2015)
